Measured values published in article PMC8134461, “A physicochemical assessment of the thermal stability of dextrin–colistin conjugates” (Scientific Reports, 2021).
Structures can show the parent of a compound that is named as a salt. Positions of bridges follow the written chain, without caps; N, C: chain ends. Non-standard residues stand in square brackets, D forms with d. Residues, ends and D or L forms follow the SMILES beside them. *: point of attachment. X1 = CC[C@H](C)CCCCC(=O)*; Dab = NCC[C@H](N)C(=O)O

Columns and labels:
[1] = system: V5 Escherichia coli AIM-1; assay: MIC assay (broth microdilution) after storage; format: cell-based; conditions: 16–20 h, mode (n = 3), equivalent colistin concentration for conjugates; for MIC, Initial: before storage, 3 mg/mL in PBS, broth microdilution in MH broth; for MIC, storage temperature 4 °C: stored in PBS at 4 °C for 12 months; for MIC, storage temperature 4 °C / MIC, storage temperature 21 °C / MIC, storage temperature 37 °C / MIC, storage temperature -20 °C / MIC, repeat freeze–thaw: broth microdilution, MH broth; for MIC, storage temperature 21 °C: stored in PBS at 21 °C for 12 months; for MIC, storage temperature 37 °C: stored in PBS at 37 °C for 12 months; for MIC, storage temperature -20 °C: stored in PBS at -20 °C for 12 months; for MIC, repeat freeze–thaw: weekly freeze-thawing for 5 weeks (-20 °C, defrosted 1 h at 20–22 °C)
Description: (§1) The clinical isolates (V5 Escherichia coli AIM-1, V6 Klebsiella pneumoniae IR25 and V19 Acinetobacter baumannii 7789) and susceptibility testing method have been previously described by Khan et al.[33] Bacterial colonies were grown on blood agar supplemented with 5% v/v defibrinated horse blood. Overnight cultures were prepared in tryptone soy broth (TSB) and Mueller–Hinton broth (MHB) was used for MIC determination (LabM; Bury, UK).
(§2) Three primary batches of colistin sulfate, CMS and dextrin-colistin conjugates were dissolved in PBS at 3 mg/mL and stored at − 20, 4, 21 and 37 °C for 0, 1, 3, 6, 9 and 12 months. In addition, to test the effect of repeated freeze–thaw on stability, a separate set of solutions were stored at − 20 °C and defrosted for 1 h at 20–22 °C weekly for 5 cycles. Samples were analyzed using FPLC (free drug) and GPC (saccharide release) and antimicrobial activity, UV/vis absorbance and protein content (bicinchoninic acid (BCA) assay) of the samples stored for 12 months was assessed.
(§3) The minimum inhibitory concentration (MIC) of colistin sulphate, CMS and dextrin-colistin conjugates was determined using the broth microdilution method in MH broth in accordance with standard guidelines. Test organisms were suspended in MH broth (100 µL, 5 × 10^5 colony forming units (CFU)/mL) and incubated in 96-well microtitre plates in serial two-fold dilutions of the test compounds. The MIC was defined as the lowest concentration of test compound that produced no visible growth after 16–20 h. Results were expressed as mode (n = 3).

[2] = system: V19 Acinetobacter baumannii 7789; format: cell-based; conditions: 16–20 h, mode (n = 3), equivalent colistin concentration for conjugates; for MIC, Initial: before storage, 3 mg/mL in PBS, broth microdilution in MH broth; for MIC, storage temperature 4 °C: stored in PBS at 4 °C for 12 months; for MIC, storage temperature 4 °C / MIC, storage temperature 21 °C / MIC, storage temperature 37 °C / MIC, storage temperature -20 °C / MIC, repeat freeze–thaw: broth microdilution, MH broth; for MIC, storage temperature 21 °C: stored in PBS at 21 °C for 12 months; for MIC, storage temperature 37 °C: stored in PBS at 37 °C for 12 months; for MIC, storage temperature -20 °C: stored in PBS at -20 °C for 12 months; for MIC, repeat freeze–thaw: weekly freeze-thawing for 5 weeks (-20 °C, defrosted 1 h at 20–22 °C)
Description: as §1, §2, §3

[3] = system: V6 Klebsiella pneumoniae IR25; format: cell-based; conditions: 16–20 h, mode (n = 3), equivalent colistin concentration for conjugates; for MIC, Initial: before storage, 3 mg/mL in PBS, broth microdilution in MH broth; for MIC, storage temperature 4 °C: stored in PBS at 4 °C for 12 months; for MIC, storage temperature 4 °C / MIC, storage temperature 21 °C / MIC, storage temperature 37 °C / MIC, storage temperature -20 °C / MIC, repeat freeze–thaw: broth microdilution, MH broth; for MIC, storage temperature 21 °C: stored in PBS at 21 °C for 12 months; for MIC, storage temperature 37 °C: stored in PBS at 37 °C for 12 months; for MIC, storage temperature -20 °C: stored in PBS at -20 °C for 12 months; for MIC, repeat freeze–thaw: weekly freeze-thawing for 5 weeks (-20 °C, defrosted 1 h at 20–22 °C)
Description: as §1, §2, §3

[4] = Stability during storage in PBS: saccharide release and elution profile by GPC; format: physicochemical; conditions: 3 mg/mL in PBS, up to 12 months; Ultrahydrogel 120, RI; CMS: after storage above -20 °C
Description: as §2
GPC was performed using an Ultrahydrogel guard column and two Ultrahydrogel 120 columns (7.8 mm × 300 mm) from Waters (Elstree, UK) in series, connected to a Jasco PU-1580 HPLC pump with PBS buffer eluent and a flow rate of 1 mL/min. Samples (300 μL) were injected into a 100 μL loop and the eluate was monitored using a Jasco MD-2010 multi-wavelength UV detector (210 and 280 nm) and a Gilson 153 differential refractometer (Middleton, WI, USA) connected to a Polymer Laboratories PL DataStream (Church Stretton, UK). Dual detection enabled distinction of dextrin and saccharide components that are not bound to colistin. Cirrus GPC software (version 3.2, 2006) from Polymer Laboratories (Church Stretton, UK) was used for data analysis. Glucose and maltose oligomers (DP 2, 3, 6 and 7) were employed for calibration. […]

[5] = system: V5 Escherichia coli AIM-1, V6 Klebsiella pneumoniae IR25 and V19 Acinetobacter baumannii 7789; assay: Antimicrobial activity after storage, MIC assay, statement over all test strains; format: cell-based; conditions: repeated freeze–thaw or storage in solution for up to 12 months at -20, 4 or 21 °C
Description: as §1, §2
The minimum inhibitory concentration (MIC) of colistin sulphate, CMS and dextrin-colistin conjugates was determined using the broth microdilution method in MH broth in accordance with standard guidelines. […] Results were expressed as mode (n = 3).

Compound	MIC, Initial [1]	MIC, storage temperature 4 °C [1]	MIC, storage temperature 21 °C [1]	MIC, storage temperature 37 °C [1]	MIC, storage temperature -20 °C [1]	MIC, repeat freeze–thaw [1]	MIC, Initial [2]	MIC, storage temperature 4 °C [2]	MIC, storage temperature 21 °C [2]	MIC, storage temperature 37 °C [2]	MIC, storage temperature -20 °C [2]	MIC, repeat freeze–thaw [2]	MIC, Initial [3]	MIC, storage temperature 4 °C [3]	MIC, storage temperature 21 °C [3]	MIC, storage temperature 37 °C [3]	MIC, storage temperature -20 °C [3]	MIC, repeat freeze–thaw [3]	change of GPC elution profile after storage [4]	change of antimicrobial activity (MIC) after storage [5]
CC[C@H](C)CCCCC(=O)N[C@@H](CCN)C(=O)N[C@H](C(=O)N[C@@H](CCN)C(=O)N[C@H]1CCNC(=O)[C@H]([C@@H](C)O)NC(=O)[C@H](CCN)NC(=O)[C@H](CCN)NC(=O)[C@H](CC(C)C)NC(=O)[C@@H](CC(C)C)NC(=O)[C@H](CCN)NC1=O)[C@@H](C)O [Colistin sulfate, colistin sulfate] (X1-[Dab]T[Dab][Dab][Dab][dL]L[Dab][Dab]T; lactam 4-C (inferred); N-terminus assumed)	0.004 µg/mL	0.002 µg/mL	0.016 µg/mL	0.25 µg/mL	0.002 µg/mL	0.004 µg/mL	0.063 µg/mL	0.031 µg/mL	0.125 µg/mL	32 µg/mL	0.063 µg/mL	0.063 µg/mL	0.125 µg/mL	0.125 µg/mL	0.5 µg/mL	> 128 µg/mL	0.063 µg/mL	0.25 µg/mL	largely unchanged	unaffected
Colistimethate sodium [CMS]	0.125 µg/mL	0.063 µg/mL	0.063 µg/mL	8 µg/mL	0.031 µg/mL	0.031 µg/mL	0.5 µg/mL	0.125 µg/mL	0.25 µg/mL	64 µg/mL	0.25 µg/mL	0.125 µg/mL	2 µg/mL	1 µg/mL	1 µg/mL	128 µg/mL	1 µg/mL	0.5 µg/mL	Significant changes in the elution profile	unaffected
